Assay results as given in ChEMBL document CHEMBL4402574, “Discovery of Acylsulfonohydrazide-Derived Inhibitors of the Lysine Acetyltransferase, KAT6A, as Potent Senescence-Inducing Anti-Cancer Agents” (J Med Chem, 2020).
In brackets after ≈: the same amount, converted by molar mass.

Tests used:
[1] = Kinetic solubility of the compound in 0.01 M HCl at pH 2 by nephelometry; assay type: physicochemical; conditions: read-out: Kinetic_solubility
[2] = Kinetic solubility of the compound in phosphate buffer at pH 6.5 by nephelometry; assay type: physicochemical; conditions: read-out: Kinetic_solubility
[3] = Apparent permeability across apical to basolateral side in human Caco2 cells measured over 90 mins by LC-MS/MS analysis; assay type: ADME, cell-based; conditions: Caco-2
[4] = Cysteine reactivity assessed as induction of confirmational change in 13C-methyl-labeled La antigen at 400 uM incubated for 1 hr at 37 degC followed by incubation at 30 degC for 15 mins in presence of DTT by ALARM NMR assay
[5] = Cysteine reactivity assessed as induction of confirmational change in 13C-methyl-labeled La antigen at 400 uM incubated for 1 hr at 37 degC followed by incubation at 30 degC for 15 mins in absence of DTT by ALARM NMR assay
[6] = Cmax in Swiss mouse at 30 mg/kg, ip by UPLC analysis; assay type: ADME, organism-based; parameters: dose 30 mg/kg, route intraperitoneal; conditions: in vivo
[7] = Tmax in Swiss mouse at 30 mg/kg, ip by UPLC analysis; assay type: ADME, organism-based; conditions: in vivo
[8] = Volume of distribution at steady state in Sprague-Dawley rat at […], iv; assay type: ADME, organism-based; conditions: in vivo, read-out: Vdss
[9] = AUC (0 to infinity) in Sprague-Dawley rat at […], iv; assay type: ADME, organism-based; parameters: dose 2.9 mg/kg, time infinity, route intravenous; conditions: in vivo
[10] = Drug excretion in Sprague-Dawley rat urine at […], iv; assay type: ADME, organism-based; conditions: in vivo, BLD = below limit of detection
[11] = Cmax in Sprague-Dawley rat at 33 mg/kg, po administered as suspension using HPMC formulation; assay type: ADME, organism-based; parameters: dose 33 mg/kg, route oral; conditions: in vivo
[12] = Tmax in Sprague-Dawley rat at 33 mg/kg, po administered as suspension using HPMC formulation; assay type: ADME, organism-based; conditions: in vivo
[13] = AUC (0 to infinity) in Sprague-Dawley rat at 33 mg/kg, po administered as suspension using HPMC formulation; assay type: ADME, organism-based; parameters: dose 33 mg/kg, route oral, time infinity; conditions: in vivo
[14] = Drug excretion in Sprague-Dawley rat urine at 33 mg/kg, po administered as suspension using HPMC formulation; assay type: ADME, organism-based; conditions: read-out: Drug excretion
[15] = Cmax in Sprague-Dawley rat at 31 mg/kg, po using PEG400/Solutol HS-15/water formulation; assay type: ADME, organism-based; parameters: dose 31 mg/kg, route oral; conditions: in vivo
[16] = Tmax in Sprague-Dawley rat at 31 mg/kg, po using PEG400/Solutol HS-15/water formulation; assay type: ADME, organism-based; conditions: in vivo
[17] = AUC (0 to infinity) in Sprague-Dawley rat at 31 mg/kg, po using PEG400/Solutol HS-15/water formulation; assay type: ADME, organism-based; parameters: dose 31 mg/kg, time infinity, route oral; conditions: in vivo
[18] = Drug excretion in Sprague-Dawley rat urine at 31 mg/kg, po using PEG400/Solutol HS-15/water formulation; assay type: ADME, organism-based; conditions: read-out: Drug excretion
[19] = in vivo; conditions: Sprague-Dawley, rat, po, 33 mg/kg

| solubility kinetic [1] [µg/mL] | solubility kinetic [2] [µg/mL] | Papp A→B at […] [3] [×10⁻⁶ cm/s] | SMILES | other results |
| --- | --- | --- | --- | --- |
| 50 to 100 (≈ 139 to 277 µM) | 50 to 100 (≈ 139 to 277 µM) |  | O=C(NNS(=O)(=O)c1ccccc1F)c1cccc(-n2cccn2)c1 |  |
| 12.5 to 25 (≈ 33.4 to 66.8 µM) | 12.5 to 25 (≈ 33.4 to 66.8 µM) |  | Cc1cc(C(=O)NNS(=O)(=O)c2ccccc2F)cc(-n2cccn2)c1 |  |
| 6.3 to 12.5 (≈ 16.8 to 33.4 µM) | 6.3 to 12.5 (≈ 16.8 to 33.4 µM) |  | Cc1cc(C(=O)NNS(=O)(=O)c2ccccc2F)cc(-c2ccco2)c1 |  |
| 25 to 50 (≈ 66.1 to 132 µM) | 25 to 50 (≈ 66.1 to 132 µM) |  | O=C(NNS(=O)(=O)c1ccccc1F)c1cc(F)cc(-n2cccn2)c1 |  |
| > 100 | 12.5 to 25 (≈ 32.4 to 64.9 µM) |  | Cc1cc(C(=O)NNS(=O)(=O)c2ccccc2F)cc(-c2ccccn2)c1 |  |
| 6.3 to 12.5 (≈ 16.8 to 33.4 µM) | 6.3 to 12.5 (≈ 16.8 to 33.4 µM) | 48 | Cc1cc(-n2cccn2)cc(C(=O)NNS(=O)(=O)c2ccccc2)c1F |  |
|  |  | 27.8 | O=C(NNS(=O)(=O)c1ccccc1F)c1cc(Cl)cc(-c2cccs2)c1 |  |
| 25 to 50 (≈ 64.2 to 128 µM) | 25 to 50 (≈ 64.2 to 128 µM) | 60 | O=C(NNS(=O)(=O)c1ccccc1F)c1cc(F)cc(-c2ccccn2)c1 [WM-1119] | Drug metabolism [4]: Metabolite_Notdetected; Drug metabolism [5]: Metabolite_Notdetected; Vd [8]: 0.72 L/kg; AUC(0-inf) [9]: 6.2 µM·h; Drug excretion [10]: Bld; Cmax [11]: 2900 nM; Tmax [12]: 1 h; AUC(0-inf) [13]: 13 µM·h; dose excreted [14]: 0.009%; Cmax [15]: 14 µM; Tmax [16]: 1 h; AUC(0-inf) [17]: 38 µM·h; dose excreted [18]: 0.078%; bioavailability [19]: 18% |

Continued, compound first:

| SMILES | solubility kinetic [1] [µg/mL] | solubility kinetic [2] [µg/mL] | Papp A→B at […] [3] [×10⁻⁶ cm/s] | other results |
| --- | --- | --- | --- | --- |
| C=CCOc1ccc(F)c(C(=O)NNS(=O)(=O)c2ccccc2)c1 | 50 to 100 (≈ 143 to 285 µM) | 50 to 100 (≈ 143 to 285 µM) |  |  |
| CCOc1cc(C)c(F)c(C(=O)NNS(=O)(=O)c2ccccc2)c1 | 12.5 to 25 (≈ 35.5 to 70.9 µM) | 12.5 to 25 (≈ 35.5 to 70.9 µM) | 65 |  |
| CCOc1cc(C)cc(C(=O)NNS(=O)(=O)c2ccccc2F)c1 | 12.5 to 25 (≈ 35.5 to 70.9 µM) | 12.5 to 25 (≈ 35.5 to 70.9 µM) | 47 | Drug metabolism [4]: Metabolite_Notdetected; Drug metabolism [5]: Metabolite_Notdetected |
| Cc1cc(OC(C)C)cc(C(=O)NNS(=O)(=O)c2ccccc2F)c1 | 12.5 to 25 (≈ 34.1 to 68.2 µM) | 12.5 to 25 (≈ 34.1 to 68.2 µM) |  |  |
| Cc1cc(-c2ncccn2)cc(C(=O)NNS(=O)(=O)c2ccccc2)c1F | 50 to 100 (≈ 129 to 259 µM) | 50 to 100 (≈ 129 to 259 µM) | 77 | Cmax [6]: 12.1 µM; Tmax [7]: 16.8 min |
| Cc1cc(-n2nccn2)cc(C(=O)NNS(=O)(=O)c2ccccc2)c1F | 25 to 50 (≈ 66.6 to 133 µM) | 25 to 50 (≈ 66.6 to 133 µM) | 53 |  |
| Cc1cc(-c2ccccn2)cc(C(=O)NNS(=O)(=O)c2ccccc2)c1F | 50 to 100 (≈ 130 to 259 µM) | 6.3 to 12.5 (≈ 16.3 to 32.4 µM) | 63 |  |
| O=C(NNS(=O)(=O)c1ccccc1F)c1cccc(I)c1 |  |  | 60.4 |  |
| O=C(NNS(=O)(=O)c1ccccc1F)c1cccc(-c2ccccn2)c1 | 50 to 100 (≈ 135 to 269 µM) | 12.5 to 25 (≈ 33.7 to 67.3 µM) |  |  |
| CC(C)Oc1cccc(C(=O)NNS(=O)(=O)c2ccccc2F)c1 | 50 to 100 (≈ 142 to 284 µM) | 50 to 100 (≈ 142 to 284 µM) |  |  |
| O=C(NNS(=O)(=O)c1ccccc1F)c1cccc(-c2ccco2)c1 |  |  | 55.3 |  |
| CCCOc1cccc(C(=O)NNS(=O)(=O)c2ccccc2F)c1 |  |  | 77.3 |  |
